This is an account of results in patent publication US20240093236A1, “RAPID HIGH THROUGHPUT SCREENING SYSTEM TO ASSESS POTENTIAL TREATMENTS FOR SPORADIC ALZHEIMER’S DISEASE” (Trustees of Tufts College, priority 2021, published 2024).

Entries after “also recorded” stand apart in the source; their conditions may differ. Where a name gives a salt, the structure may show the parent alone.

For assay [1], the system named is HSV-1-infected hiNSCs. Put plainly: Latency model of HSV-1 infection in hiNSCs (acute infection followed by antiviral treatment), qPCR. The assay is classed as cell-based, human. As to conditions: acute HSV-1 infection 24 hrs followed by antiviral treatment (latency induction). From the text:
A) Schematic of timeline of HSV-1 and antiviral treatments to induce latency. Acute infection of hiNSCs with HSV-1 for 24 hrs. followed by antiviral treatment results in similar expression patterns of typical AD markers as described previously (B-D). E) This treatment also results in quantifiable expression of HSV-1 latency associated transcript (LAT).
HSV-1 typically lies latent in the peripheral nervous system indefinitely, and it is only upon reactivation that this virus can exert its detrimental effects such as cold sores and potentially neurodegeneration. Understanding potential triggers of this viral reactivation are crucial in elucidating downstream pathways involved in disease pathogenesis. There are currently few if any suitable in vitro models of HSV-1 latency. Here, we describe a method with which to induce latency of HSV-1 in vitro. […] Induction of latency with valacyclovir was also associated with an increase in glial fibrillary acidic protein (GFAP) expression (FIG. 21D), which is indicative of gliosis.

The test system of assay [2] is APP, BACE1, PSEN1, and PSEN2. Put plainly: qPCR expression of AD mediators (APP, BACE1, PSEN1, PSEN2) in HSV-1-infected hiNSCs. The assay is classed as cell-based, human. Conditions: HSV-1 MOI 0.0001. The procedure:
(§1) hiNSC colonies were trypsinized off of MEF feeder layers using TrypLE (Invitrogen) and then dissociated by manual pipetting. Cell suspensions were passaged through a 40- to […] cell strainer to remove larger aggregates. Dissociated hiNSCs were cultured on gelatin-coated plates in neurobasal media supplemented with 2% B27 (Invitrogen), 1% glutamax, and 1% antibiotic-antimycotic. For HSV infection, we used purified HSV-1 to directly infect hiNSCs at a range of MOIs (0.00001 to 1), which was calculated based on the starting virus concentration (2×10^7 PFU/ml) and initial seeding density.
(§2) Once added to media, inoculum was allowed to remain in cell cultures for the duration of the experiment to mimic low-level brain infection. For mock infections, an equal volume of control culture medium from uninfected Vero cells was used. All virus work was approved by the Tufts Institutional Biosafety Committee. Valacyclovir (VCV) HCl was reconstituted in dH2O and used at a concentration of 200 μM for all subsequent experiments. […]
(§3) Total RNA was isolated using the RNeasy Mini Kit (Qiagen). […] Quantitative reverse transcription PCR (qRT-PCR) was performed using SYBR Green and the CFX96 Real-Time PCR Detection System (Bio-Rad) and normalized against the housekeeping gene glyceraldehyde phosphate dehydrogenase. […]

The subject of assay [3] is HSV-1-infected hiNSCs. Put plainly: Gliosis and neuroinflammation (GFAP, TNFα) in HSV-1-infected hiNSCs, immunostaining and qPCR. The assay is classed as cell-based, human. As to the method:
as §1, §2, §3

For assay [4], the system named is hiNSCs. Put plainly: Conditioned media (CM) experiment: reactive glia formation in new hiNSCs, TUJ1 and GFAP immunostaining. The assay is classed as cell-based, human. As to conditions: VCV in virus CM with fresh HSV-1; new hiNSCs cultured for 4 days. As to the method: Cells grown in tissue culture plates or in 3D scaffolds were fixed in 4% paraformaldehyde and washed with 1×phosphate-buffered saline (PBS). Samples were incubated with a blocking buffer consisting of PBS, 10% goat serum, and 0.1% Triton X-100. Primary antibodies were added to the blocking buffer and incubated with samples overnight at 4° C. The next day, samples were washed several times with PBS and incubated with a corresponding fluorescently conjugated secondary antibody in a blocking buffer for 1 hour at room temperature. Nuclei were counterstained with 4′,6-diamidino-2-phenylindole (Invitrogen).
Moreover, we aimed to understand whether HSV-1-secreted factors could cause gliosis even in the absence of infection (FIG. 7). CM were harvested and filtered from mock- or HSV-1-infected hiNSCs that had been cultured for 2 days. Fresh HSV-1 virus was added to CM in the absence or presence of antiviral treatment VCV, and new hiNSCs were cultured for 4 days. β-III tubulin (TUJ1) and GFAP immunostaining was performed to visualize neurons and glia, respectively.

The test system of assay [5] is HSV-1-infected hiNSCs. Kind of assay: Aβ+ plaque-like formations (PLFs) in HSV-1-infected hiNSCs, immunostaining. As to conditions: 200 μM VCV, MOI 0.0001, HCl. The class given is cell-based, human. The procedure: as §1
(§4) Once added to media, inoculum was allowed to remain in cell cultures for the duration of the experiment to mimic low-level brain infection. For mock infections, an equal volume of control culture medium from uninfected Vero cells was used. All virus work was approved by the Tufts Institutional Biosafety Committee. Valacyclovir (VCV) HCl was reconstituted in dH2O and used at a concentration of 200 μM for all subsequent experiments. VCV was added at day 0 (D0; concurrently with HSV-1 infection) or day 1 (D1; 24 hours after infection).
Cells grown in tissue culture plates or in 3D scaffolds were fixed in 4% paraformaldehyde and washed with 1×phosphate-buffered saline (PBS). Samples were incubated with a blocking buffer consisting of PBS, 10% goat serum, and 0.1% Triton X-100. […]

In assay [6] the test system is hiNSCs. Kind of assay: VCV alone in the absence of virus on hiNSCs. The class given is cell-based, human. As to conditions: 200 μM VCV alone, no virus (data not shown). As to the method: as §4
One of the most commonly used antiviral agents for treating HSV-1 infections is VCV, which specifically targets viral DNA replication in infected cells. We cultured hiNSCs for 4 days before subjecting to either mock or HSV-1 infection (MOI 0.0001). […] We first immunostained against HSV and Aβ (FIG. 4A) to determine any differences in the rate of HSV-1 infection and PLF generation in response to drug treatment.

For assay [7], the system named is HSV-1. Put plainly: HSV-1 infection of hiNSCs with VCV treatment (HSV immunostaining, qPCR for HSV-UL29). The class given is cell-based, herpes simplex virus type 1. The procedure:
as §1, §2, §3
On the technique in general: In qPCR the cycle at which signal appears reflects the starting amount.

With `CC(C)[C@H](N)C(=O)OCCOCn1cnc2c(=O)[nH]c(N)nc21` [VCV, Valacyclovir HCl], in assay [1], the “HSV-1 latency associated transcript (LAT)” value was “significant increase”, the PSEN2 expression entry is given as “significant increase” and the “glial fibrillary acidic protein (GFAP) expression” value was “increase”. In assay [2] (200 μM VCV at D0), the “expression of AD mediators APP, BACE1, PSEN1 and PSEN2 (qPCR)” value is reported as “nearly rescued all markers back to control values”. Moreover, the “expression of AD mediators APP, BACE1, PSEN1 and PSEN2 (qPCR)” value in assay [2] (200 μM VCV at D1 (24 hours after infection)) is “partial rescue”. In addition, the “GFAP expression (immunostaining and qPCR)” value in assay [3] (200 μM VCV at D0) is “almost completely restored”. For the same compound, in assay [3] (200 μM VCV, both D0 and D1 dosing regimens), the “pro-inflammatory mediator TNFα” value was “significantly reduced”. Further, the reactive glia formation result in assay [4] is reported as “increased reactive glia formation”. Besides, in assay [5], the “average number of PLFs” value is on record as “significantly reduced; also recorded: decrease” and the “average size (area) of PLFs” value is recorded as “significantly reduced; also recorded: decrease”. In addition, in assay [6], the “effect on hiNSCs in the absence of virus” value was “no discernible effect”. Also, the HSV-1 infection entry in assay [7] (200 μM VCV at D0 (concurrently with HSV-1 infection), MOI 0.0001) is listed as “almost completely abolished infection”. Also, the “HSV-1 infection (immunostaining and qPCR for HSV-UL29)” value in assay [7] (200 μM VCV, both drug regimens (D0 or D1), HSV-1 MOI 0.0001, hiNSCs, HCl) is listed as “significant decrease; also recorded: reduces HSV-1 infection”.
